Results: patent US12240813B2, “Deuterated tryptamine derivatives and methods of use” (priority 2020, dated 2025)

Columns and labels:
hrMAO-A = target: T1, hrMAO-A (Homo sapiens, UniProt P21397); test: Metabolic stability in the presence of hrMAO-A; assay type: in vitro ADME; conditions: for MAO (metabolized or not) / MAO, % (half-life as % vs. the related nondeuterated compound): MAO-A; for MAO (metabolized or not): last assay time point 120 min; for MAO, % (half-life as % vs. the related nondeuterated compound): values in square brackets are within 10% difference (assay's accuracy), no deuteration effect
T1 construct: purchased XenoTech Lot #8213001
T1 sequence (P21397 1-527): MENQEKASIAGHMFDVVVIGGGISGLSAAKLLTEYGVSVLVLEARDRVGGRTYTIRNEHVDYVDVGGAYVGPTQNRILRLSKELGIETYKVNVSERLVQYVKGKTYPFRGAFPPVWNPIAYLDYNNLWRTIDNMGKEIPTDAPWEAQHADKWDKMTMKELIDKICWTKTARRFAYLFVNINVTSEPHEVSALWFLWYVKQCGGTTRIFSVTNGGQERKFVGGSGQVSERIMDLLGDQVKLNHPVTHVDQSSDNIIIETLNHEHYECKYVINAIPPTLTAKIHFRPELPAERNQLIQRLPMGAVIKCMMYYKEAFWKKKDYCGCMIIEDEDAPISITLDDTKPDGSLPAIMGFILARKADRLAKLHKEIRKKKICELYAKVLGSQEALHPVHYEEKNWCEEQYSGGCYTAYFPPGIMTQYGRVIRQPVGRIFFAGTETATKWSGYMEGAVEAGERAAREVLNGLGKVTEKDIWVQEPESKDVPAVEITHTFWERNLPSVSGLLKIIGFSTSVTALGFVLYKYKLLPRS
Experimental: The reaction mixture was prepared as described below. The co-dosed TAs were added into the reaction mixture at a final concentration of 1 microM each. The positive control, kynuramine (25 microM), was run simultaneously with the TAs in a separate reaction. The reaction mixture (without TAs or kynuramine) was equilibrated in a shaking water bath at 37° C. for 5 minutes. The reaction was initiated by the addition of the TAs or kynuramine, and the mixture was incubated in a shaking water bath at 37° C. Aliquots (100 microL) of the TA reaction mixture were withdrawn at 0, 5, 10, 20, 30, 60, and 120 minutes. Aliquots (100 microL) of the positive control reaction mixture were withdrawn at 0 and 30 minutes. TA and kynuramine samples were immediately combined with 100 microL of ice-cold 100% MeCN containing 0.1% formic acid and IS to terminate the reaction. The samples were then mixed and centrifuged to precipitate proteins. All TA samples were assayed by LC-HRAMS. The PARR (analyte to IS) at each time point was compared to the PARR at time 0 to determine the percent remaining at each time point. Reaction composition: hrMAO 0.02 mg/mL; Potassium Phosphate, pH 7.4 100 mM; Magnesium Chloride 5 mM; Test Articles (each) 1 microM.

rat liver microsomes = test: Metabolic stability in rat liver microsomes (RLM); conditions: for RLM (metabolized or not): last assay time point 120 min; for RLM, % (half-life as % vs. the related nondeuterated compound): values in square brackets are within 10% difference (assay's accuracy), no deuteration effect; for RLM (metabolized or not) / RLM, % (half-life as % vs. the related nondeuterated compound) / % Remaining of Initial, 0 min / % Remaining of Initial, 5 min / % Remaining of Initial, 10 min / % Remaining of Initial, 20 min / % Remaining of Initial, 30 min / % Remaining of Initial, 60 min / % Remaining of Initial, 120 min: RLM
[1] = hrMAO-A, Table 3, four test articles
[2] = hrMAO-A, Table 5, d8 and d10 analogs of DMT
[3] = Table 4, d8 and d10 analogs of DMT

`CCN(C)CCc1c[nH]c2ccc(OC)cc12` [reference compound] was tested, and the “MAO (metabolized or not)” value (hrMAO-A) was “R” and the “RLM (metabolized or not)” value (rat liver microsomes) was “R”.
With `[2H]C([2H])([2H])NC([2H])([2H])Cc1c[nH]c2ccccc12` the “MAO, % (half-life as % vs. the related nondeuterated compound)” value (“MAO, %” below) (hrMAO-A) was 744% and the “RLM, % (half-life as % vs. the related nondeuterated compound)” value (“RLM, %” below) (rat liver microsomes) was 207%.
In the case of `COc1ccc2[nH]cc(CCN(C)C)c2c1` [5-MeO-DMT, reference compound], the “MAO (metabolized or not)” value (hrMAO-A) is reported as “R” and the “RLM (metabolized or not)” value (rat liver microsomes) is reported as “R”.
In the case of `COc1cccc2[nH]cc(CCN(C)C)c12` [reference compound], the “MAO (metabolized or not)” value (hrMAO-A) is reported as “R” and the “RLM (metabolized or not)” value (rat liver microsomes) is reported as “R”.
With `CNCCc1c[nH]c2cccc(O)c12` [reference compound] the “MAO (metabolized or not)” value (hrMAO-A) was “R” and the “RLM (metabolized or not)” value (rat liver microsomes) was “R”.
For `[2H]C([2H])([2H])N(C([2H])([2H])[2H])C([2H])([2H])C([2H])([2H])c1c[nH]c2ccccc12` [DMT-d10], the “stability in the MAO-A enzymatic assay” value (hrMAO-A; MAO-A enzymatic assay) was “superiority”, the “% Remaining of Initial, 0 min” value (hrMAO-A; [1]) was 100% and the “% Remaining of Initial, 0 min” value (hrMAO-A; [2]) was 100.0%. The “% Remaining of Initial, 5 min” value (hrMAO-A; [1]) was 107%, the “% Remaining of Initial, 5 min” value (hrMAO-A; [2]) was 99.0% and the “% Remaining of Initial, 10 min” value (hrMAO-A; [1]) was 112%. For the same compound, the “% Remaining of Initial, 10 min” value (hrMAO-A; [2]) was 94.9%, the “% Remaining of Initial, 20 min” value (hrMAO-A; [1]) was 103% and the “% Remaining of Initial, 20 min” value (hrMAO-A; [2]) was 95.4%. The “% Remaining of Initial, 30 min” value (hrMAO-A; [1]) was 101%, the “% Remaining of Initial, 30 min” value (hrMAO-A; [2]) was 91.4% and the “% Remaining of Initial, 60 min” value (hrMAO-A; [1]) was 82.2%. For the same compound, the “% Remaining of Initial, 60 min” value (hrMAO-A; [2]) was 81.5%, the “% Remaining of Initial, 120 min” value (hrMAO-A; [1]) was 68.6% and the “% Remaining of Initial, 120 min” value (hrMAO-A; [2]) was 65.8%. For the same compound, the Half-life (hrMAO-A; [1]) was over 2 h, the Half-life (hrMAO-A; [2]) was over 2 h and the “% Remaining of Initial, 0 min” value (rat liver microsomes; Table 2, four test articles) was 100%. For the same compound, the “% Remaining of Initial, 0 min” value (rat liver microsomes; [3]) was 100%, the “% Remaining of Initial, 5 min” value (rat liver microsomes; Table 2, four test articles) was 72.5% and the “% Remaining of Initial, 5 min” value (rat liver microsomes; [3]) was 69.3%. The “% Remaining of Initial, 10 min” value (rat liver microsomes; Table 2, four test articles) was 62.2%, the “% Remaining of Initial, 10 min” value (rat liver microsomes; [3]) was 56.0% and the “% Remaining of Initial, 20 min” value (rat liver microsomes; Table 2, four test articles) was 55.2%. For the same compound, the “% Remaining of Initial, 20 min” value (rat liver microsomes; [3]) was 44.9%, the “% Remaining of Initial, 30 min” value (rat liver microsomes; Table 2, four test articles) was 50.9% and the “% Remaining of Initial, 30 min” value (rat liver microsomes; [3]) was 39.3%. For the same compound, the “% Remaining of Initial, 60 min” value (rat liver microsomes; Table 2, four test articles) was 39.6%, the “% Remaining of Initial, 60 min” value (rat liver microsomes; [3]) was 30.5% and the “% Remaining of Initial, 120 min” value (rat liver microsomes; Table 2, four test articles) was 29.4%. For the same compound, the “% Remaining of Initial, 120 min” value (rat liver microsomes; [3]) was 23.6% and the metabolic stability (rat liver microsomes; rat liver microsomes, compared with DMT-α,α-d2 and DMT-α,α,β,β-d4) was “Further enhancement of metabolic stability”.
In the case of `[2H]C([2H])(Cc1c[nH]c2ccccc12)NCC`, the “MAO, %” value (hrMAO-A) is reported as 145% and the “RLM, %” value (rat liver microsomes) is reported as 138%.
With `[2H]C([2H])(NCC)C([2H])([2H])c1c[nH]c2ccccc12` the “MAO, %” value (hrMAO-A) was 140% and the “RLM, %” value (rat liver microsomes) was 142%.
With `[2H]c1[nH]c2c([2H])c([2H])c([2H])c([2H])c2c1CCN(C)C` the “MAO, %” value (hrMAO-A) was “[103] %” and the “RLM, %” value (rat liver microsomes) was “[106] %”.
For `[2H]C([2H])(c1c[nH]c2ccc(OC)cc12)C([2H])([2H])N(C)CC`, the “MAO, %” value (hrMAO-A) was 132% and the “RLM, %” value (rat liver microsomes) was 115%.
In the case of `[2H]C([2H])(Cc1c[nH]c2cccc(OC)c12)N(C)CC`, the “MAO, %” value (hrMAO-A) is reported as 281% and the “RLM, %” value (rat liver microsomes) is reported as 163%.
In the case of `CN(C)CCc1c[nH]c2ccccc12` [DMT, reference compound], the “% Remaining of Initial, 0 min” value (hrMAO-A; [1]) is reported as 100%, the “% Remaining of Initial, 5 min” value (hrMAO-A; [1]) is reported as 96.3% and the “% Remaining of Initial, 10 min” value (hrMAO-A; [1]) is reported as 90.7%. The “% Remaining of Initial, 20 min” value (hrMAO-A; [1]) was 64.8%, the “% Remaining of Initial, 30 min” value (hrMAO-A; [1]) was 49.4% and the “% Remaining of Initial, 60 min” value (hrMAO-A; [1]) was 18.1%. The “% Remaining of Initial, 120 min” value (hrMAO-A; [1]) was 3.95%, the CLint (hrMAO-A; hrMAO-A, Table 3) was 0.638 mL/min/mg protein and the Half-life (hrMAO-A; [1]) was 0.453 h. The “% Remaining of Initial, 0 min” value (rat liver microsomes; Table 2, four test articles) was 100%, the “% Remaining of Initial, 5 min” value (rat liver microsomes; Table 2, four test articles) was 65.2% and the “% Remaining of Initial, 10 min” value (rat liver microsomes; Table 2, four test articles) was 52.2%. For the same compound, the “% Remaining of Initial, 20 min” value (rat liver microsomes; Table 2, four test articles) was 41.0%, the “% Remaining of Initial, 30 min” value (rat liver microsomes; Table 2, four test articles) was 33.2% and the “% Remaining of Initial, 60 min” value (rat liver microsomes; Table 2, four test articles) was 17.4%. For the same compound, the “% Remaining of Initial, 120 min” value (rat liver microsomes; Table 2, four test articles) was 4.07%.
With `[2H]C([2H])(Cc1c[nH]c2ccccc12)NC` the “MAO, %” value (hrMAO-A) was 578% and the “RLM, %” value (rat liver microsomes) was 182%.
For `[2H]C([2H])(Cc1c[nH]c2ccc(OC)cc12)N(C)CC`, the “MAO, %” value (hrMAO-A) was 126% and the “RLM, %” value (rat liver microsomes) was 117%.
`[2H]C([2H])([2H])NC([2H])([2H])C([2H])([2H])c1c[nH]c2cccc(O)c12` was tested, and the “MAO, %” value (hrMAO-A) was 459% and the “RLM, %” value (rat liver microsomes) was 173%.
With `CNCCc1c[nH]c2ccccc12` [reference compound] the “MAO (metabolized or not)” value (hrMAO-A) was “R” and the “RLM (metabolized or not)” value (rat liver microsomes) was “R”.
In the case of `CN(C)CCc1c[nH]c2ccc(O)cc12` [reference compound], the “MAO (metabolized or not)” value (hrMAO-A) is reported as “R” and the “RLM (metabolized or not)” value (rat liver microsomes) is reported as “R”.
In the case of `[2H]C([2H])(c1c[nH]c2ccc(OC)cc12)C([2H])([2H])N(C)C`, the “MAO, %” value (hrMAO-A) is reported as 229% and the “RLM, %” value (rat liver microsomes) is reported as 184%.
`[2H]C([2H])(Cc1c[nH]c2ccc(O)cc12)N(C)C` was tested, and the “MAO, %” value (hrMAO-A) was 415% and the “RLM, %” value (rat liver microsomes) was 133%.
`[2H]c1[nH]c2c([2H])c([2H])c([2H])c([2H])c2c1C([2H])([2H])C([2H])([2H])N(C([2H])([2H])[2H])C([2H])([2H])[2H]` [DMT-d15] was tested, and the “MAO, %” value (hrMAO-A) was 643%, the “half-life compared to DMT-d10” value (rat liver microsomes; RLM assay) was “no improvement in half-life” and the “RLM, %” value (rat liver microsomes) was 325%.
In the case of `[2H]C([2H])([2H])Oc1ccc2[nH]cc(CC([2H])([2H])N(C([2H])([2H])[2H])C([2H])([2H])[2H])c2c1`, the “MAO, %” value (hrMAO-A) is reported as 366% and the “RLM, %” value (rat liver microsomes) is reported as 288%.
`[2H]C([2H])(Cc1c[nH]c2ccccc12)N(C)CC` was tested, and the “MAO, %” value (hrMAO-A) was 168% and the “RLM, %” value (rat liver microsomes) was 121%.
In the case of `[2H]C([2H])([2H])NC([2H])([2H])C([2H])([2H])c1c[nH]c2ccccc12`, the “MAO, %” value (hrMAO-A) is reported as 711% and the “RLM, %” value (rat liver microsomes) is reported as 214%.
With `[2H]C([2H])(c1c[nH]c2ccccc12)C([2H])([2H])N(C)CC` the “MAO, %” value (hrMAO-A) was 162% and the “RLM, %” value (rat liver microsomes) was 131%.
With `CCN(C)CCc1c[nH]c2ccccc12` [reference compound] the “MAO (metabolized or not)” value (hrMAO-A) was “R” and the “RLM (metabolized or not)” value (rat liver microsomes) was “R”.
For `[2H]C([2H])(c1c[nH]c2cccc(OC)c12)C([2H])([2H])N(C)CC`, the “MAO, %” value (hrMAO-A) was 291% and the “RLM, %” value (rat liver microsomes) was 161%.
